Where two headings read alike, the source gives them in different places. Each block holds one compound with its values, some of them ahead of it.
How the values were obtained:
[1] = test system: asynchronous 3D7-A10 parasite cultures; experiment: Standard 72-h exposure asexual blood stage susceptibility assay (IC50^72h); type: cell-based, Plasmodium falciparum; conditions: Plasmodium falciparum, 3D7, 72 h, read-out: Overall (72hr assay) Mean IC50 (IC50^72h)
[2] = test system: Plasmodium falciparum 3D7-A10 parasites; experiment: Stage specificity assay (8-h exposure of synchronized stages, IC50^8h); type: cell-based; conditions: for IC50: Plasmodium falciparum
[3] = test system: 3D7-MR4 trophozoite parasite-infected RBCs; conditions: 10 × IC50^72h; ref Allman et al., 2016; cited from earlier work
[4] = test system: 3D7-MR4 trophozoite parasite-infected RBCs; experiment: Metabolomic profiling (hydrophilic metabolite changes, UHPLC-MS); type: cell-based, Plasmodium falciparum

SMILES: CCN(CC)CCCC(C)Nc1ccnc2cc(Cl)ccc12 (stereo not drawn) [Chloroquine, reference compound]
IC50 [1]: 0.0059 µM | IC50 ([2]; 3D7, read-out: Early rings Mean IC50 (IC50^8h)): 0.0178 µM | IC50 ([2]; 3D7, read-out: Early trophozoites Mean IC50 (IC50^8h)): 0.0174 µM | IC50 ([2]; 3D7, read-out: IC50^8h values): < 0.3 µM | IC50 ([2]; 3D7, read-out: Late rings Mean IC50 (IC50^8h)): 0.0186 µM | IC50 ([2]; 3D7, read-out: Late trophozoites Mean IC50 (IC50^8h)): 0.0301 µM | IC50 ([2]; 3D7, read-out: Schizonts Mean IC50 (IC50^8h)): 0.0603 µM | increased levels of dAMP, dUTP, cytidine, xanthosine, and N-acetyl-lysine [3]: > 2 fold | peptide levels (hemoglobin catabolism signature) [3]: more modest decrease in peptide levels

IC50 [1]: 0.0072 µM
SMILES: CC(C)C[C@@H](/C=C/S(C)(=O)=O)NC(=O)[C@H](CC(C)C)NC(=O)[C@H](Cc1c[nH]c2ccccc12)NC(=O)CN1CCOCC1 [WLL-vs, reference compound]
IC50 ([2]; 3D7, read-out: Early rings Mean IC50 (IC50^8h), 8-h exposure 0–8 hr, 3D7-A10, survival at 60 h): 0.0237 µM | IC50 ([2]; 3D7, read-out: Early trophozoites Mean IC50 (IC50^8h), 8-h exposure 16–24 hr, 3D7-A10, survival at 60 h): 0.0576 µM | IC50 ([2]; 3D7, read-out: Late rings Mean IC50 (IC50^8h), 8-h exposure 8–16 hr, 3D7-A10, survival at 60 h): 0.0294 µM | IC50 ([2]; 3D7, read-out: Late trophozoites Mean IC50 (IC50^8h), 8-h exposure 24–32 hr, 3D7-A10, survival at 60 h): 0.0471 µM | IC50 ([2]; 3D7, read-out: Schizonts Mean IC50 (IC50^8h), 8-h exposure 32–40 hr, 3D7-A10, survival at 60 h): 0.0501 µM | Stage of peak activity (Figure 6) ([2]; period when the parasite was most susceptible (lowest IC50^8h)): ring stages | changes within the set of metabolites detected (low fold change group) ([4]; 10 × IC50^72h, 2.5 hr, trophozoites): did not induce major changes | Log2(fold changes) 3-phosphoglycerate ([4]; metabolite 3-phosphoglycerate, log2 fold change): -0.1339 | Log2(fold changes) 4-Pyridoxic acid ([4]; metabolite 4-Pyridoxic acid, log2 fold change): 0.0000 | Log2(fold changes) 4-aminobutyrate ([4]; metabolite 4-aminobutyrate, log2 fold change): -0.0215 | Log2(fold changes) 4-phosphopantetheine ([4]; metabolite 4-phosphopantetheine, log2 fold change): 0.0000 | Log2(fold changes) 4-phosphopantothenate ([4]; metabolite 4-phosphopantothenate, log2 fold change): -0.0913 | Log2(fold changes) 5-aminopentanoic acid ([4]; metabolite 5-aminopentanoic acid, log2 fold change): 0.0000 | Log2(fold changes) 5-methyl-THF ([4]; metabolite 5-methyl-THF, log2 fold change): 0.0000 | Log2(fold changes) 5-phosphoribosyl-1-pyrophosphate ([4]; metabolite 5-phosphoribosyl-1-pyrophosphate, log2 fold change): -0.1277 | Log2(fold changes) 6-phospho-D-gluconate ([4]; metabolite 6-phospho-D-gluconate, log2 fold change): -0.0373 | Log2(fold change) HVDD ([4]; metabolite HVDD): -0.5028 | Log2(fold change) Hydroxyisocaproic acid ([4]; metabolite Hydroxyisocaproic acid): 0.0000 | Log2(fold change) IDP ([4]; metabolite IDP): 0.0000 | Log2(fold change) IMP ([4]; metabolite IMP): 0.0400 | Log2(fold change) Inositol ([4]; metabolite Inositol): 0.0000 | Log2(fold change) Isopentyl-PP ([4]; metabolite Isopentyl-PP): 0.0000 | Log2(fold change) L-arginino-succinate ([4]; metabolite L-arginino-succinate): 0.0000 | Log2(fold change) LD ([4]; metabolite LD): 0.0000 | Log2(fold change) Myristoyl/tetradecanoyl-CoA ([4]; metabolite Myristoyl/tetradecanoyl-CoA): 0.0000 | Log2(fold change) N-Acetyl-L-alanine ([4]; metabolite N-Acetyl-L-alanine): -0.0632 | Log2(fold change) N-acetyl-L-ornithine ([4]; metabolite N-acetyl-L-ornithine): -0.0046 | Log2(fold change) N-acetyl-glucosamine-1/6-phosphate ([4]; metabolite N-acetyl-glucosamine-1/6-phosphate): -0.0854 | Log2(fold change) N-acetyl-glutamate ([4]; metabolite N-acetyl-glutamate): 0.1610 | Log2(fold change) N-acetyl-glutamine ([4]; metabolite N-acetyl-glutamine): 0.0000 | Log2(fold change) N-carbamoyl-L-aspartate ([4]; metabolite N-carbamoyl-L-aspartate): 0.1147 | Log2(fold change) NAD+ ([4]; metabolite NAD+): 0.0000 | Log2(fold change) NADH ([4]; metabolite NADH): 0.3385 | Log2(fold change) NADP+ ([4]; metabolite NADP+): -0.1225 | Log2(fold change) NADPH ([4]; metabolite NADPH): 0.0976 | Log2(fold change) O-acetyl-L-serine ([4]; metabolite O-acetyl-L-serine): 0.0000 | Log2(fold change) Octoluse 8/1P ([4]; metabolite Octoluse 8/1P): 0.0000 | Log2(fold change) Octoluse Bisphosphate ([4]; metabolite Octoluse Bisphosphate): -0.1506 | Log2(fold change) PD ([4]; metabolite PD): -0.2643 | Log2(fold change) PE ([4]; metabolite PE): -0.3236 | Log2(fold change) PEE ([4]; metabolite PEE): -0.1344 | Log2(fold change) PEEK ([4]; metabolite PEEK): 0.0000 | Log2(fold change) PVNF ([4]; metabolite PVNF): -0.5296 | Log2(fold change) Pyroglutamic acid ([4]; metabolite Pyroglutamic acid): 0.0000 | Log2(fold change) Pyrophosphate ([4]; metabolite Pyrophosphate): 0.0000 | Log2(fold change) Ribose-5-phosphate ([4]; metabolite Ribose-5-phosphate): -0.2996 | Log2(fold change) S-adenosyl-L-homocysteine ([4]; metabolite S-adenosyl-L-homocysteine): -0.2761 | Log2(fold change) S-adenosyl-L-methioninamine ([4]; metabolite S-adenosyl-L-methioninamine): 0.0000 | Log2(fold change) S-adenosyl-L-methionine ([4]; metabolite S-adenosyl-L-methionine): 0.0000 | Log2(fold change) S-methyl-5'-thioadenosine ([4]; metabolite S-methyl-5'-thioadenosine): 0.0000 | Log2(fold change) SD ([4]; metabolite SD): -0.1301 | Log2(fold change) SDL ([4]; metabolite SDL): 0.0000 | Log2(fold change) SID ([4]; metabolite SID): -0.3691 | Log2(fold change) Sedoheptulose bisphosphate ([4]; metabolite Sedoheptulose bisphosphate): -0.1909 | Log2(fold change) Thiamine pyrophosphate ([4]; metabolite Thiamine pyrophosphate): 0.0000 | Log2(fold changes) UDP-D-glucose ([4]; metabolite UDP-D-glucose, log2 fold change): -0.0066 | Log2(fold changes) UDP-D-glucuronate ([4]; metabolite UDP-D-glucuronate, log2 fold change): -0.1270 | Log2(fold changes) UDP-N-acetyl-glucosamine ([4]; metabolite UDP-N-acetyl-glucosamine, log2 fold change): -0.0647 | Log2(fold changes) UDP ([4]; metabolite UDP, log2 fold change): -0.3774 | Log2(fold changes) UMP ([4]; metabolite UMP, log2 fold change): 0.1341 | Log2(fold changes) UTP ([4]; metabolite UTP, log2 fold change): -0.1532 | Log2(fold change) hydroxyphenylpyruvate ([4]; metabolite hydroxyphenylpyruvate): 0.0000 | Log2(fold change) hydroxyproline/Aminolevulinate ([4]; metabolite hydroxyproline/Aminolevulinate): -0.0172 | Log2(fold change) hypoxanthine ([4]; metabolite hypoxanthine): 0.1957 | Log2(fold change) indole ([4]; metabolite indole): 0.0000 | Log2(fold change) inosine ([4]; metabolite inosine): 0.0926 | Log2(fold change) isoleucine ([4]; metabolite isoleucine): 0.0638 | Log2(fold change) lactate ([4]; metabolite lactate): -0.1762 | Log2(fold change) leucine ([4]; metabolite leucine): -0.0424 | Log2(fold change) lysine ([4]; metabolite lysine): 0.0000 | Log2(fold change) malate ([4]; metabolite malate): -0.1070 | Log2(fold change) maleic acid ([4]; metabolite maleic acid): -0.1330 | Log2(fold change) methionine ([4]; metabolite methionine): 0.1427 | Log2(fold change) myo-inositol ([4]; metabolite myo-inositol): 0.0000 | Log2(fold change) nicotinamide mononucleotide ([4]; metabolite nicotinamide mononucleotide): 0.0000 | Log2(fold change) nicotinate ([4]; metabolite nicotinate): 0.0441 | Log2(fold change) ornithine ([4]; metabolite ornithine): 0.0000 | Log2(fold change) orotate ([4]; metabolite orotate): -0.0939 | Log2(fold change) orotidine-5'-phosphate ([4]; metabolite orotidine-5'-phosphate): -0.0654 | Log2(fold change) oxaloacetate ([4]; metabolite oxaloacetate): 0.0000 | Log2(fold change) p-aminobenzoate ([4]; metabolite p-aminobenzoate): 0.0000 | Log2(fold change) p-hydroxybenzoate ([4]; metabolite p-hydroxybenzoate): 0.0000 | Log2(fold change) pantothenate ([4]; metabolite pantothenate): -0.2167 | Log2(fold change) phenylalanine ([4]; metabolite phenylalanine): 0.0156 | Log2(fold change) phenylpyruvate ([4]; metabolite phenylpyruvate): 0.0000 | Log2(fold change) phosphoenolpyruvate ([4]; metabolite phosphoenolpyruvate): -0.0337 | Log2(fold change) prephenate ([4]; metabolite prephenate): 0.0000 | Log2(fold change) proline ([4]; metabolite proline): -0.1122 | Log2(fold change) pyridoxine ([4]; metabolite pyridoxine): 0.0678 | Log2(fold change) pyruvate ([4]; metabolite pyruvate): -0.3415 | Log2(fold change) riboflavin ([4]; metabolite riboflavin): 0.0000 | Log2(fold change) ribose ([4]; metabolite ribose): 0.1290 | Log2(fold change) ribose-phosphate ([4]; metabolite ribose-phosphate): -0.4836 | Log2(fold change) ribulose-5-phosphate ([4]; metabolite ribulose-5-phosphate): -0.5090 | Log2(fold change) serine ([4]; metabolite serine): -0.0671 | Log2(fold change) sn-glycerol-3-phosphate ([4]; metabolite sn-glycerol-3-phosphate): -0.0482 | Log2(fold change) succinate/Methylmalonic acid ([4]; metabolite succinate/Methylmalonic acid): 0.1064 | Log2(fold change) succinyl-CoA/methylmalonyl-CoA ([4]; metabolite succinyl-CoA/methylmalonyl-CoA): -0.0054 | Log2(fold change) taurine ([4]; metabolite taurine): 0.0000 | Log2(fold change) thiamine ([4]; metabolite thiamine): 0.0000 | Log2(fold change) threonine/homoserine ([4]; metabolite threonine/homoserine): -0.1507 | Log2(fold change) thymidine ([4]; metabolite thymidine): 0.0000 | Log2(fold changes) thymine ([4]; metabolite thymine, log2 fold change): 0.0000 | Log2(fold changes) trehalose-6-Phosphate ([4]; metabolite trehalose-6-Phosphate, log2 fold change): 0.0000 | Log2(fold changes) tryptophan ([4]; metabolite tryptophan, log2 fold change): -0.0680 | Log2(fold changes) tyrosine ([4]; metabolite tyrosine, log2 fold change): -0.0190 | Log2(fold changes) uridine ([4]; metabolite uridine, log2 fold change): 0.0000

— paper PMC7031696 (Cell chemical biology, 2019)
